Test results from PubChem BioAssay AID328 (DTP/NCI, 2004).
Where “and” joins values, the source holds several entries; their conditions need not be identical. Equal values may be shown once. Inconclusive results and toxic doses are left out.

Tested on: BDF1 mice, P388 leukemia ip, median survival T/C
Assay: NCI In Vivo Anticancer Drug Screen. Data for tumor model P388 Leukemia (intraperitoneal) in B6D2F1 (BDF1) mice
Conditions: endpoint: median survival time, higher = longer survival
How it was run: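 T/C = treated-group survival ÷ vehicle-control survival; tumour transplanted into mice before dosing.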

[1] = dose: 50.0 mg/kg/injection, schedule: Q01DX009 (ip), vehicle: saline with Tween-80
[2] = dose: 100.0 mg/kg/injection, schedule: Q01DX009 (ip), vehicle: Klucel (hydroxypropylcellulose) (HPC)
[3] = dose: 100.0 mg/kg/injection, schedule: Q01DX009 (ip), vehicle: saline with Tween-80
[4] = dose: 100.0 mg/kg/injection, schedule: Q04DX003 (ip), vehicle: Klucel (hydroxypropylcellulose) (HPC)
[5] = dose: 200.0 mg/kg/injection, schedule: Q01DX009 (ip), vehicle: Klucel (hydroxypropylcellulose) (HPC)
[6] = dose: 200.0 mg/kg/injection, schedule: Q01DX009 (ip), vehicle: saline with Tween-80
[7] = dose: 200.0 mg/kg/injection, schedule: Q04DX003 (ip), vehicle: Klucel (hydroxypropylcellulose) (HPC)
[8] = dose: 400.0 mg/kg/injection, schedule: Q01DX009 (ip), vehicle: Klucel (hydroxypropylcellulose) (HPC)
[9] = dose: 400.0 mg/kg/injection, schedule: Q04DX003 (ip), vehicle: Klucel (hydroxypropylcellulose) (HPC)
[10] = dose: 12.5 mg/kg/injection, schedule: Q01DX009 (ip), vehicle: saline with Tween-80
[11] = dose: 25.0 mg/kg/injection, schedule: Q01DX009 (ip), vehicle: saline with Tween-80
[12] = dose: 100.0 mg/kg/injection, schedule: Q01DX009 (ip), vehicle: saline
[13] = dose: 200.0 mg/kg/injection, schedule: Q01DX009 (ip), vehicle: saline
[14] = dose: 400.0 mg/kg/injection, schedule: Q01DX009 (ip), vehicle: saline
[15] = dose: 50.0 mg/kg/injection, schedule: Q04DX003 (ip), vehicle: saline with Tween-80
[16] = dose: 100.0 mg/kg/injection, schedule: Q04DX003 (ip), vehicle: saline
[17] = dose: 200.0 mg/kg/injection, schedule: Q04DX003 (ip), vehicle: saline
[18] = dose: 400.0 mg/kg/injection, schedule: Q04DX003 (ip), vehicle: saline
[19] = dose: 100.0 mg/kg/injection, schedule: Q04DX003 (ip), vehicle: saline with Tween-80
[20] = dose: 200.0 mg/kg/injection, schedule: Q04DX003 (ip), vehicle: saline with Tween-80
[21] = dose: 400.0 mg/kg/injection, schedule: Q04DX003 (ip), vehicle: saline with Tween-80

CCN/C(C)=C\C(=O)OCC
T/C [1]: 95 % of control | T/C [2]: 122 % of control | T/C [3]: 100 % of control | T/C [4]: 100 % of control | T/C [5]: 111 % of control | T/C [6]: 117 % of control | T/C [7]: 100 % of control | T/C (dose: 266.0 mg/kg/injection, schedule: Q01DX009 (ip), vehicle: Klucel (hydroxypropylcellulose) (HPC)): 99 % of control | T/C [8]: 99 % of control | T/C (dose: 400.0 mg/kg/injection, schedule: Q01DX009 (ip), vehicle: saline with Tween-80): 111 % of control | T/C [9]: 100 % of control

Clc1ccc(-c2ncc3cnccn23)cc1Cl
T/C (dose: 0.78 mg/kg/injection, schedule: Q04DX003 (ip), vehicle: saline with Tween-80): 92 % of control | T/C (dose: 1.56 mg/kg/injection, schedule: Q01DX009 (ip), vehicle: saline with Tween-80): 89 % of control | T/C (dose: 1.56 mg/kg/injection, schedule: Q04DX003 (ip), vehicle: saline with Tween-80): 90 % of control | T/C (dose: 3.12 mg/kg/injection, schedule: Q01DX009 (ip), vehicle: saline with Tween-80): 95 % of control | T/C (dose: 3.12 mg/kg/injection, schedule: Q04DX003 (ip), vehicle: saline with Tween-80): 94 % of control | T/C (dose: 6.25 mg/kg/injection, schedule: Q01DX009 (ip), vehicle: saline with Tween-80): 95 % of control | T/C (dose: 6.25 mg/kg/injection, schedule: Q04DX003 (ip), vehicle: saline with Tween-80): 100 % of control | T/C [10]: 99 % of control | T/C [11]: 100 % of control | T/C [1]: 100 % of control

O=c1nc(Oc2ccccc2)nc2ncccn12
T/C [10]: 121 % of control

Cc1c(C)c(CC#N)c(C)c(C)c1CC#N
T/C (dose: 25.0 mg/kg/injection, schedule: Q01DX009 (ip), vehicle: Klucel (hydroxypropylcellulose) (HPC)): 91 % of control | T/C (dose: 50.0 mg/kg/injection, schedule: Q01DX009 (ip), vehicle: Klucel (hydroxypropylcellulose) (HPC)): 91 % of control | T/C [2]: 87 % of control | T/C [4]: 92 % of control | T/C [5]: 91 % of control

COc1ccc2c(c1OC)C(=O)O[C@@H]2[C@H]1c2c(cc3c(c2OC)OCO3)CCN1C
T/C (dose: 31.3 mg/kg/injection, schedule: Q01DX010 (ip), vehicle: saline): 95 % of control | T/C (dose: 62.5 mg/kg/injection, schedule: Q01DX010 (ip), vehicle: saline): 104 % of control | T/C (dose: 125.0 mg/kg/injection, schedule: Q01DX010 (ip), vehicle: saline): 100 % of control | T/C (dose: 250.0 mg/kg/injection, schedule: Q01DX010 (ip), vehicle: saline): 100 % of control

CC1(C)Cc2cc3cc(Cl)ccc3nc2-c2ccccc21
T/C [12]: 110 % of control | T/C [4]: 110 % of control | T/C [13]: 105 % of control | T/C [7]: 115 % of control | T/C [14]: 110 % of control | T/C [9]: 110 % of control

C/C(=N/N)c1ccc(Br)cc1
T/C (dose: 3.0 mg/kg/injection, schedule: Q01DX009 (ip), vehicle: saline with Tween-80): 103 % of control | T/C (dose: 6.0 mg/kg/injection, schedule: Q01DX009 (ip), vehicle: saline with Tween-80): 92 % of control | T/C (dose: 22.0 mg/kg/injection, schedule: Q04DX003 (ip), vehicle: saline with Tween-80): 118 % of control | T/C (dose: 34.0 mg/kg/injection, schedule: Q04DX003 (ip), vehicle: saline with Tween-80): 118 % of control and 122 % of control | T/C [15]: 122 % of control

c1ccn2c(CSCc3nnc4ccccn34)nnc2c1
T/C [1]: 100 % of control | T/C [3]: 109 % of control | T/C [6]: 109 % of control

BrC1C2CC(c3ccccc32)C1Br (stereo unspecified)
T/C (dose: 100.0 mg/kg/injection, schedule: Q01DX001 (ip), vehicle: saline): 109 % of control | T/C [12]: 100 % of control | T/C [16]: 100 % of control | T/C (dose: 200.0 mg/kg/injection, schedule: Q01DX001 (ip), vehicle: saline): 104 % of control | T/C [13]: 104 % of control | T/C [17]: 91 % of control | T/C (dose: 400.0 mg/kg/injection, schedule: Q01DX001 (ip), vehicle: saline): 100 % of control | T/C [14]: 109 % of control | T/C [18]: 104 % of control

O=c1c2ccc(Cl)cc2[nH]c2ccc(Cl)cc12
T/C (dose: 25.0 mg/kg/injection, schedule: Q04DX003 (ip), vehicle: saline with Tween-80): 103 % of control | T/C [15]: 100 % of control | T/C [19]: 99 % of control

CCOC(=O)C(C#N)N=Nc1ccccc1 (stereo unspecified)
T/C [19]: 90 % of control | T/C [20]: 95 % of control | T/C [21]: 90 % of control

O=S(=O)(CCl)OCCCl
T/C [11]: 123 % of control | T/C [1]: 107 % of control | T/C [3]: 214 % of control | T/C [6]: 177 % of control

N#Cc1cccc(O)c1
T/C [1]: 104 % of control | T/C [3]: 100 % of control | T/C [6]: 109 % of control

Nc1ccn([C@@H](C=O)O[C@@H](C=O)CO)c(=O)n1
T/C (dose: 8.8 mg/kg/injection, schedule: Q01DX009 (ip), vehicle: saline): 115 % of control | T/C (dose: 66.0 mg/kg/injection, schedule: Q04DX003 (ip), vehicle: saline): 100 % of control | T/C [16]: 112 % of control | T/C (dose: 150.0 mg/kg/injection, schedule: Q04DX003 (ip), vehicle: saline): 120 % of control | T/C [17]: 150 % of control | T/C [18]: 181 % of control

COC(=O)/C=C1/OC(=O)CC1(C)C
T/C (dose: 100.0 mg/kg/injection, schedule: Q01DX001 (ip), vehicle: saline with Tween-80): 105 % of control | T/C (dose: 200.0 mg/kg/injection, schedule: Q01DX001 (ip), vehicle: saline with Tween-80): 95 % of control | T/C (dose: 400.0 mg/kg/injection, schedule: Q01DX001 (ip), vehicle: saline with Tween-80): 100 % of control

O=S(=O)(Cc1ccc(Cl)cc1)c1nc2ccccc2s1
T/C (dose: 50.0 mg/kg/injection, schedule: Q01DX005 (ip), vehicle: saline with Tween-80): 107 % of control | T/C (dose: 100.0 mg/kg/injection, schedule: Q01DX005 (ip), vehicle: saline with Tween-80): 105 % of control

NOCc1ccsn1
T/C (dose: 200.0 mg/kg/injection, schedule: Q04DX003 (ip), vehicle: other): 95 % of control | T/C (dose: 400.0 mg/kg/injection, schedule: Q04DX003 (ip), vehicle: other): 90 % of control

Cn1c(=O)c(S(C)=O)c(O)c2ccccc21 (stereo unspecified)
T/C [1]: 118 % of control | T/C [3]: 100 % of control | T/C [6]: 112 % of control

CCCCNC(=O)Nc1ccc(N(CC)CC)cc1
T/C [19]: 100 % of control | T/C [20]: 100 % of control | T/C [21]: 90 % of control

C/C=C/C=C/NC(=O)Oc1ccccc1
T/C [19]: 91 % of control | T/C [20]: 94 % of control | T/C [21]: 116 % of control

CC(=O)Nc1ccc(NC(=O)NCCCl)cc1
T/C (dose: 50.0 mg/kg/injection, schedule: Q04DX003 (ip), vehicle: Klucel (hydroxypropylcellulose) (HPC)): 110 % of control | T/C (dose: 59.0 mg/kg/injection, schedule: Q01DX009 (ip), vehicle: Klucel (hydroxypropylcellulose) (HPC)): 100 % of control | T/C (dose: 88.0 mg/kg/injection, schedule: Q01DX009 (ip), vehicle: Klucel (hydroxypropylcellulose) (HPC)): 100 % of control | T/C [4]: 110 % of control | T/C (dose: 133.0 mg/kg/injection, schedule: Q01DX009 (ip), vehicle: Klucel (hydroxypropylcellulose) (HPC)): 115 % of control | T/C (dose: 133.0 mg/kg/injection, schedule: Q04DX003 (ip), vehicle: Klucel (hydroxypropylcellulose) (HPC)): 90 % of control and 100 % of control | T/C [7]: 90 % of control and 100 % of control | T/C (dose: 300.0 mg/kg/injection, schedule: Q04DX003 (ip), vehicle: Klucel (hydroxypropylcellulose) (HPC)): 90 % of control

O=C(/C=C\c1ccc(O)cc1)c1ccccc1
T/C [2]: 105 % of control | T/C [4]: 108 % of control | T/C [5]: 110 % of control | T/C [7]: 100 % of control | T/C [8]: 110 % of control | T/C [9]: 104 % of control

CCOC(=O)c1c/c(=C(\C)O)c(=O)n2c1nc1ccccc12
T/C (dose: 100.0 mg/kg/injection, schedule: Q04DX002 (ip), vehicle: saline with Tween-80): 100 % of control | T/C (dose: 200.0 mg/kg/injection, schedule: Q04DX002 (ip), vehicle: saline with Tween-80): 87 % of control | T/C (dose: 400.0 mg/kg/injection, schedule: Q04DX002 (ip), vehicle: saline with Tween-80): 103 % of control
